From article PMC11286589, “Population pharmacokinetics and exposure–response analyses of SAF-189s in Chinese patients with ALK+/ROS1+ non-small cell lung cancer” (Frontiers in Pharmacology, 2024)
Where two headings read alike, the source gives them in different places.

Legend:
[1] = previous NCA results, no reference given, cited from earlier work
[2] = Exposure–safety analysis (logistic regression); assay type: in vivo, human; details: per increase in exposure (AUCss) of 1 ng∙h mL^–1 d^–1, all patients
Protocol: (§1) All studies were conducted in accordance with the Good Clinical Practice guidelines and Declaration of Helsinki. The protocols were approved by the independent ethics committee of each investigation site, and all subjects provided informed consent. The tumor responses were assessed by the IRC based on the Response Evaluation Criteria in Solid Tumors (RECIST) 1.1 conditions. The exposure–efficacy analyses of SAF-189s were conducted based on data from patients in the SAF001 study to explore the relationships between systemic exposure and efficacy endpoints, including the ORR, PFS, and duration of response (DOR). The exposure–safety analyses of SAF-189s were conducted based on data from patients in the SAF001 study to explore the relationships between the systemic exposure and safety endpoints, including the adverse events (AEs) of interest. In these studies, the SAF-189s plasma concentrations were analyzed using validated liquid chromatography tandem mass spectrometry within the assay range of 0.5–150 ng mL^–1.
(§2) The exposure–safety relationships were characterized using the exposure metrics to the first occurrence of an event. The AEs of interest selected for analysis included hyperglycemia and proteinuria. The individual post hoc PK parameters from the final PopPK model and the first dosage were used to calculate the Cmin,ss, Cmax,ss, and AUCss at steady state, which were used as the exposure metrics. The exposure–safety analysis was performed using a logistic regression modeling approach.

[3] = no reference given, cited from earlier work
[4] = Adverse events in patients of study SAF001; assay type: in vivo, human
Protocol: as §1, §2

[5] = system: ALK+/ROS1+ advanced NSCLC; experiment: Phase I/II study (SAF001, NCT04237805): tumor response, IRC, RECIST 1.1; assay type: in vivo, human
Excerpt: A first-in-human phase I/II study (NCT04237805) enrolled patients with advanced ALK+/ROS1+ NSCLC with or without asymptomatic CNS metastases. […] The population PK analysis included data from one phase I study of SAF-189s conducted with healthy subjects (study STL31147; n = 24) and one phase I/II study conducted with Chinese patients having ALK+/ROS1+ advanced NSCLC (study SAF001; n = 299). STL31147 was a single-center, randomized, open-label, two-period (fed and fasting), and two-sequence crossover study on healthy Chinese adults. The volunteers received SAF-189s at a dose of 160 mg orally once in each period, with a washout period of 14 days. Blood samples (3 mL) were collected after each SAF-189s administration at 0 (predose), 1, 2, 3, 4, 6, 8, 10, 12, 24, 48, 72, 120, and 168 h post dosing. SAF001 was a multicenter, open-label, and single-arm phase I/II study to evaluate the safety, tolerability, pharmacokinetics, and antitumor activity of SAF-189s in patients with advanced ALK+ NSCLC (phase I) and ALK+/ROS1+ NSCLC (phase II). In the dose escalation portion, the study treatment included a single-agent 3-day PK run-in period and a continuous treatment period. The dosing regimens were 20, 40, 80, 120, 160, and 210 mg QD for 21 days in 21-day cycles during the continuous treatment period. In phase II, the patients received 80, 120, 160, and 210 mg of SAF-189s (phase IIa) or 160 mg (phase IIb) QD over 21-day cycles. All studies were conducted in accordance with the Good Clinical Practice guidelines and Declaration of Helsinki. The protocols were approved by the independent ethics committee of each investigation site, and all subjects provided informed consent. The tumor responses were assessed by the IRC based on the Response Evaluation Criteria in Solid Tumors (RECIST) 1.1 conditions. The exposure–efficacy analyses of SAF-189s were conducted based on data from patients in the SAF001 study to explore the relationships between systemic exposure and efficacy endpoints, including the ORR, PFS, and duration of response (DOR). The exposure–safety analyses of SAF-189s were conducted based on data from patients in the SAF001 study to explore the relationships between the systemic exposure and safety endpoints, including the adverse events (AEs) of interest. In these studies, the SAF-189s plasma concentrations were analyzed using validated liquid chromatography tandem mass spectrometry within the assay range of 0.5–150 ng mL^–1.

## Cc1cc(Nc2ncc(Cl)c(Nc3ccccc3S(=O)(=O)C(C)C)n2)c2c(c1C1CCN(C)CC1)C[C@@H](C)O2 [SAF-189s]
[1]; after multiple doses at 20 mg once daily
  apparent clearance (CL/F): 132 L h^–1
[1]; after multiple doses at 210 mg once daily
  apparent clearance (CL/F): 58.3 L h^–1
[2]; p < 0.001
  OR for any-grade hyperglycemia: 3.521
  OR for grade ≥2 hyperglycemia: 7.662
[2]; p = 0.021
  OR for proteinuria: 2.031
[3]; BCS classification
  permeability: low permeability
  solubility: low solubility
[3]
  BCS class: BCS IV
[4]; 160 mg QD dosing regimen
  tolerability: well tolerated
[4]; 160 mg dose group
  incidence of drug-related TEAE leading to permanent discontinuation: 2%
[4]; 160 mg dose group, ALK+ and ROS1+ patients (n = 153)
  incidence of grade ≥3 TEAE: less than 9.15%
[4]; 210 mg dose vs other lower doses
  tolerability: less tolerated
[4]; SAF001 patients, any grade
  incidence rate of hyperglycemia: 55.74%
[4]; any grade, N = 296
  Diarrhea, number of patients (%): 65 (21.96%)
  Hypercholesterolemia or cholesterol increase, number of patients (%): 111 (37.50%)
  Hyperglycemia, number of patients (%): 165 (55.74%)
  Nausea, number of patients (%): 112 (37.84%)
  Proteinuria, number of patients (%): 90 (30.41%)
  Vomiting, number of patients (%): 102 (34.46%)
[4]; ≥ Grade 2, N = 296
  Diarrhea, number of patients (%): 17 (5.74%)
  Hypercholesterolemia or cholesterol increase, number of patients (%): 27 (9.12%)
  Hyperglycemia, number of patients (%): 82 (27.70%)
  Nausea, number of patients (%): 8 (2.70%)
  Proteinuria, number of patients (%): 28 (9.46%)
  Vomiting, number of patients (%): 15 (5.07%)
[5]; 160-mg dose group, ROS1+ treatment-naive patients (n = 59)
  ORR: 89.83%
[5]; ALK+ and ROS1+ patients (n = 244)
  ORR: 78.69%
[5]; ROS1+ treatment-naive subgroup (n = 68)
  ORR: 91.18%
[5]; ROS1+ treatment-resistant patients (n = 32)
  ORR: 40.62%
